Assay results as given in patent publication US11130741B2 (Bioimics AB, priority 2016, dated 2021).
In brackets after ≈: the same amount, converted by molar mass. Like-named read-outs stand apart in the source and are kept apart here.

Experiments:
[1] = test system: E. coli RNase P RNA, M1 RNA; experiment: Inhibition of bacterial RNase P activity, IC50 determination (cleavage of pATSerUG by M1 RNA); format: biochemical; details: NI = No inhibition
[2] = test system: Enterococcus faecalis (ATCC29212); experiment: MIC, broth microdilution (CLSI), Enterococcus faecalis ATCC29212; format: cell-based; details: read-out: MIC E. faecalis ATCC 29212
[3] = test system: Pseudomonas aeruginosa (ATCC27853); experiment: microbe, parasite or virus in culture; format: cell-based; details: read-out: MIC P. aeruginosa ATCC 27853
[4] = test system: Staphylococcus aureus subsp. aureus (ATCC29213); experiment: MIC, broth microdilution (CLSI), Staphylococcus aureus subsp. aureus ATCC29213; format: cell-based
[5] = test system: H. influenzae ATCC 49247; experiment: MIC, H. influenzae ATCC 49247; format: cell-based; details: Haemophilus influenzae, ATCC49247
[6] = test system: A. baumannii ATCC 17978; experiment: MIC, A. baumannii ATCC 17978; format: cell-based; details: Acinetobacter baumannii, ATCC17978
[7] = test system: P. aeruginosa NTUH-974 (MDR); experiment: MIC, P. aeruginosa NTUH-974 (MDR); format: cell-based
[8] = test system: N. gonorrhoeae 612501; experiment: MIC, N. gonorrhoeae 612501; format: cell-based; details: Neisseria gonorrhoeae
[9] = test system: H. pylori ATCC 43504; experiment: MIC, H. pylori ATCC 43504; format: cell-based; details: Helicobacter pylori, ATCC43504
[10] = test system: E. faecium ATCC 700221; experiment: MIC, E. faecium ATCC 700221; format: cell-based; details: Enterococcus faecium, ATCC700221; read-out: MIC E. faecium ATCC 700221
[11] = test system: E. coli JW5503; experiment: MIC, E. coli JW5503; format: cell-based; details: Escherichia coli, JW5503, read-out: MIC E. coli JW5503
[12] = test system: K. pneumoniae ATCC 43816; experiment: MIC, K. pneumoniae ATCC 43816; format: cell-based; details: Klebsiella pneumoniae, ATCC43816
[13] = test system: M. phlei ATCC 11758; experiment: MIC, M. phlei ATCC 11758; format: cell-based; details: Mycolicibacterium phlei, ATCC11758
[14] = test system: S. aureus ATCC 29213; experiment: MIC, S. aureus ATCC 29213 + 50% HS; format: cell-based; details: Staphylococcus aureus, ATCC29213
[15] = test system: S. aureus MRSA ATCC 33591; experiment: MIC, S. aureus MRSA ATCC 33591; format: cell-based; details: Staphylococcus aureus; read-out: MIC S. aureus MRSA ATCC 33591
[16] = test system: S. pneumoniae ATCC 49619; experiment: MIC, S. pneumoniae ATCC 49619; format: cell-based; details: Streptococcus pneumoniae, ATCC49619
[17] = test system: S. aureus USA300 MRSA BAA 1717; experiment: MIC, S. aureus USA300 MRSA BAA 1717; format: cell-based; details: Staphylococcus aureus
[18] = test system: M. fortuitum ATCC 110; experiment: MIC, M. fortuitum ATCC 110; format: cell-based; details: Mycolicibacterium fortuitum, ATCC110
[19] = test system: Escherichia coli (ATCC25922); experiment: MIC, broth microdilution (CLSI), Escherichia coli ATCC25922
Experimental: (§1) Initial minimal inhibitory concentration (MIC) tests were made on two bacterial strains: • Escherichia coli (ATCC25922) • Staphylococcus aureus (ATCC25923).
Minimal Inhibitory Concentration (MIC)
(§2) MIC values were determined using the standard broth microdilution procedure based on the guidelines by the Clinical and Laboratory Standards Institute (CLSI). Briefly, the compounds were dissolved in DMSO to 10 mM. They were diluted in cation-adjusted Mueller-Hinton broth (CAMHB) to four times the highest concentration tested. A serial 2-fold dilution in CAMHB was done in microdilution plates. The inoculum of bacterial strain to be tested was prepared by making a suspension of colonies from an 18 to 24 hours old plate in CAMHB. The inoculum was diluted so that, after inoculation, each well contained approximately 5×10^5 CFU/mL. To a volume of 50 μl compound in CAMHB an equal volume of inoculum was added. The tray was sealed in a plastic bag and incubated at 35° C. for 16 to 20 hours. To aid in the detection of growth the dye resazurin was added to a final concentration 0.001% and incubated at room temperature for 1 h. Reduction of resazurin, and therefore bacterial growth, was seen as a change from blue to pink.

[20] = test system: Staphylococcus aureus (ATCC25923); experiment: MIC, broth microdilution (CLSI), Staphylococcus aureus ATCC25923; details: ATCC25923, read-out: S. aureus ("Clinical") MIC
Experimental: as §1
Minimal Inhibitory Concentration (MIC)
as §2

[21] = ATCC29213, Table 15, read-out: S. aureus ("wound") (MIC)
[22] = ATCC29213, Table 16, read-out: MIC S. aureus ATCC 29213
[23] = Pseudomonas aeruginosa; read-out: MIC P. aeruginosa NTUH-974 (MDR)
[24] = ATCC25922, read-out: E. coli MIC, Table 15, NI = No inhibition
[25] = ATCC25922, read-out: MIC E. coli ATCC 25922, Table 16
[26] = Pseudomonas aeruginosa, read-out: MIC P. aeruginosa NTUH-974 (MDR)

Compound	IC50 [1] [µM]	MIC [2] [µg/mL]	MIC [3] [µg/mL]	MIC [4, 21] [µg/mL]	MIC [4, 22] [µg/mL]	MIC [5] [µg/mL]	MIC [6] [µg/mL]	MIC [7, 23] [µg/mL]	MIC [8] [µg/mL]	MIC [9] [µg/mL]	MIC [10] [µg/mL]	MIC [11] [µg/mL]	MIC [12] [µg/mL]	MIC [13] [µg/mL]	MIC [14] [µg/mL]	MIC [15] [µg/mL]	MIC [16] [µg/mL]	MIC [17] [µg/mL]	MIC [19, 24] [µg/mL]	MIC [19, 25] [µg/mL]	also measured
CC1CCN(c2ccc3c(c2)Sc2cc(C(F)(F)F)cc(NC4CCN(CCN)CC4)c2N3)CC1.Cl.Cl [compound 307, N-(1-(2-aminoethyl)piperidin-4-yl)-7-(4-methyl-piperidin-1-yl)-3-(trifluoromethyl)-10H-phenothiazin-1-amine hydrochloride]	16	2	16	2	2	2	8	16	1	16	2	2	4	8	32	2	8	2	4	4	MIC [18]: 4 µg/mL
NC1CCCC(CNc2cc(C(F)(F)F)cc3c2Nc2ccccc2S3)C1 (centres unmarked) [compound 133, N-((3-Aminocyclohexyl)methyl)-3-(trifluoromethyl)-10H-phenothiazin-1-amine]	19	8 (≈ 20.3 µM)	128 (≈ 325 µM)	81 (≈ 206 µM)	4 (≈ 10.2 µM)	16 (≈ 40.7 µM)	16 (≈ 40.7 µM)	–	2 (≈ 5.08 µM)	–	4 (≈ 10.2 µM)	8 (≈ 20.3 µM)	32 (≈ 81.3 µM)	–	128	4 (≈ 10.2 µM)	32 (≈ 81.3 µM)	–	13 (≈ 33 µM)	32 (≈ 81.3 µM)	MIC [7, 26]: 128 µg/mL (≈ 325 µM); MIC [20]: 3 µg/mL (≈ 7.62 µM)
CC1CCCN(c2ccc3c(c2)Sc2cc(C(F)(F)F)cc(NC4CCN(CCN)CC4)c2N3)C1.Cl.Cl (centres unmarked) [compound 301, N-(1-(2-aminoethyl)piperidin-4-yl)-7-(3-methyl-piperidin-1-yl)-3-(trifluoromethyl)-10H-phenothiazin-1-amine hydrochloride]	27	2	16	2	4	2	4	16	1	8	2	2	4	8	16	2	4	2	4	4	MIC [18]: 4 µg/mL
CC(C)NCCCN1c2ccccc2Sc2cc(-c3cc4ccccc4[nH]3)ccc21 [compound 197, 3-(3-(1H-indol-2-yl)-10H-phenothiazin-10-yl)-N-isopropylpropan-1-amine]	25	2 (≈ 4.84 µM)	> 128	4 (≈ 9.67 µM)	2 (≈ 4.84 µM)	16 (≈ 38.7 µM)	64 (≈ 155 µM)	–	1 (≈ 2.42 µM)	–	2 (≈ 4.84 µM)	4 (≈ 9.67 µM)	> 128	–	128	16 (≈ 38.7 µM)	4 (≈ 9.67 µM)	–	–	64 (≈ 155 µM)	MIC [7, 26]: > 128 µg/mL; MIC [20]: 6 µg/mL (≈ 14.5 µM)
Cl.Cl.NCCNCCC(=O)Nc1cc(C(F)(F)F)cc2c1Nc1ccc(N3CCCC3)cc1S2 [compound 302, 3-((2-aminoethyl)amino)-N-(7-(pyrrolidin-1-yl)-3-(trifluoromethyl)-10H-phenothiazin-1-yl)propanamide hydrochloride]	3.6	8	32	32	8	16	32	32	8	32	4	16	16	16	64	8	64	8	128	16	MIC [18]: 8 µg/mL
Cl.NC1CCCC(CNc2cc(C(F)(F)F)cc3c2Nc2ccc(N4CCCC4)cc2S3)C1 (centres unmarked) [compound 300, N-((3-aminocyclohexyl)methyl)-7-(pyrrolidin-1-yl)-3-(trifluoromethyl)-10H-phenothiazin-1-amine]	1.9	1	> 32	1	1	2	8	> 32	1	16	1	2	8	4	16	1	4	1	16	4	MIC [18]: 2 µg/mL
O=C(/C=C/c1ccc(F)cc1)Nc1cc(C(F)(F)F)cc2c1Nc1ccccc1S2 [compound 92, E-3-(4-fluorophenyl)-N-(3-(trifluoromethyl)-10H-phenothiazin-1-yl)acrylamide]	> 100	2 (≈ 4.65 µM)	> 128	1 (≈ 2.32 µM)	0.5 (≈ 1.16 µM)	> 128	> 128	–	0.25 (≈ 0.581 µM)	–	0.5 (≈ 1.16 µM)	> 128	> 128	–	128	2 (≈ 4.65 µM)	8 (≈ 18.6 µM)	–	> 100	–	MIC [7, 26]: > 128 µg/mL; MIC ([19]; ATCC25922, read-out: MIC E. coli ATCC 25922): > 128 µg/mL; MIC [20]: 1 µg/mL (≈ 2.32 µM)
CC1(C)CCCN(c2ccc3c(c2)Sc2cc(C(F)(F)F)cc(NC4CCN(CCN)CC4)c2N3)C1.Cl.Cl [compound 305, N-(1-(2-aminoethyl)piperidin-4-yl)-7-(3,3-dimethyl-piperidin-1-yl)-3-(trifluoromethyl)-10H-phenothiazin-1-amine hydrochloride]	2.9	1	16	2	1	1	4	16	1	16	1	4	4	2	32	1	2	1	4	4	MIC [18]: 4 µg/mL
Cl.Cl.NCCN1CCC(Nc2cc(C(F)(F)F)cc3c2Nc2ccc(N4CCCC4)cc2S3)CC1 [compound 284, N-(1-(2-aminoethyl)piperidin-4-yl)-7-(pyrrolidin-1-yl)-3-(trifluoromethyl)-10H-phenothiazin-1-amine hydrochloride]	0.89	2	32	2	2	8	8	32	2	32	2	4	4	4	32	2	8	2	8	4	MIC [18]: 8 µg/mL
CC1CC(C)CN(c2ccc3c(c2)Sc2cc(C(F)(F)F)cc(NC4CCN(CCN)CC4)c2N3)C1.Cl.Cl.Cl (centres unmarked) [compound 274, N-(1-(2-aminoethyl)piperidin-4-yl)-7-(3,5-dimethyl-piperidin-1-yl)-3-(trifluoromethyl)-10H-phenothiazin-1-amine hydrochloride]	24	2	16	1	1	1	4	16	1	16	1	8	4	4	16	1	4	1	8	4	MIC [18]: 4 µg/mL
